# In ChEMBL document CHEMBL1201862, “PubChem BioAssay data set” (2004):
#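 Results reflect a 48-hour exposure of cells in 96-well plates to compound at five concentrations. The concentration for 50% growth inhibition is given as GI50.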 Activity calls are given as the source filed them. Rule as the data show it: active = GI50 up to about 1.1 µM and inactive = higher.
# Tests used:
# Experiment in all cases: DTP human tumour cell line panel, 48 h
# UO-31 = test system: UO-31
# A549 = test system: A549
# HOP-62 = test system: HOP-62
# OVCAR-3 = test system: OVCAR-3
# UACC-257 = test system: UACC-257
# TK-10 = test system: TK-10
# CCRF-CEM = test system: CCRF-CEM
# OVCAR-8 = test system: OVCAR-8
# DMS-114 = test system: DMS-114
# HL-60 = test system: HL-60
# DMS-273 = test system: DMS-273
# ACHN = test system: ACHN
# U-251 = test system: U-251
# IGROV-1 = test system: IGROV-1
# NCI-H522 = test system: NCI-H522
# UACC-62 = test system: UACC-62
# Malme-3M = test system: Malme-3M
# SR = test system: SR
# SN12C = test system: SN12C
# CAKI-1 = test system: CAKI-1
# SNB-19 = test system: SNB-19
# LXFL 529 = test system: LXFL 529
# RPMI-8226 = test system: RPMI-8226
# EKVX = test system: EKVX
# HCT-116 = test system: HCT-116
# M19-MEL = test system: M19-MEL
# MOLT-4 = test system: MOLT-4
# RXF 393 = test system: RXF 393
# XF498 = test system: XF498
# 786-0 = test system: 786-0
# SK-OV-3 = test system: SK-OV-3
# SF-295 = test system: SF-295
# OVCAR-4 = test system: OVCAR-4
# SF-268 = test system: SF-268
# HOP-92 = test system: HOP-92
# LOX IMVI = test system: LOX IMVI
# SF-539 = test system: SF-539
# A498 = test system: A498
# COLO 205 = test system: COLO 205
# KM-20L2 = test system: KM-20L2
# NCI-H23 = test system: NCI-H23
# M14 = test system: M14
# HCC 2998 = test system: HCC 2998
# OVCAR-5 = test system: OVCAR-5
# K562 = test system: K562
# SK-MEL-28 = test system: SK-MEL-28
# HCT-15 = test system: HCT-15
# KM12 = test system: KM12
# DLD-1 = test system: DLD-1
# SNB-75 = test system: SNB-75
# SK-MEL-2 = test system: SK-MEL-2
# NCI-H460 = test system: NCI-H460
# SNB-78 = test system: SNB-78
# HT-29 = test system: HT-29
# SW-620 = test system: SW-620
# HOP-18 = test system: HOP-18
structure (smiles),measurement,setting,value
CC12C=C[C@]3(CC[C@@H]4[C@@](C)(CO)CCC[C@]4(C)C3CC1)C2 (stereo partly drawn),GI50,UO-31,17.8 µM (inactive)
same,GI50,A549,18.2 µM (inactive)
same,GI50,HOP-62,14.6 µM (inactive)
same,GI50,OVCAR-3,18.2 µM (inactive)
same,GI50,UACC-257,18.5 µM (inactive)
same,GI50,TK-10,20.1 µM (inactive)
same,GI50,CCRF-CEM,19.9 µM (inactive)
same,GI50,OVCAR-8,21.4 µM (inactive)
same,GI50,DMS-114,15.5 µM (inactive)
same,GI50,HL-60,17.9 µM (inactive)
same,GI50,DMS-273,16.1 µM (inactive)
same,GI50,ACHN,18.1 µM (inactive)
same,GI50,U-251,16.6 µM (inactive)
same,GI50,IGROV-1,17.5 µM (inactive)
same,GI50,NCI-H522,11.5 µM (inactive)
same,GI50,UACC-62,15.8 µM (inactive)
same,GI50,Malme-3M,20.5 µM (inactive)
same,GI50,SR,16 µM (inactive)
same,GI50,SN12C,18.2 µM (inactive)
same,GI50,CAKI-1,12.8 µM (inactive)
same,GI50,SNB-19,19.6 µM (inactive)
same,GI50,LXFL 529,16.9 µM (inactive)
same,GI50,RPMI-8226,17.9 µM (inactive)
same,GI50,EKVX,24.8 µM (inactive)
same,GI50,HCT-116,17.9 µM (inactive)
same,GI50,M19-MEL,19.2 µM (inactive)
same,GI50,MOLT-4,23.6 µM (inactive)
same,GI50,RXF 393,13.7 µM (inactive)
same,GI50,XF498,19.6 µM (inactive)
same,GI50,786-0,16 µM (inactive)
same,GI50,SK-OV-3,18.7 µM (inactive)
same,GI50,SF-295,19.5 µM (inactive)
same,GI50,OVCAR-4,13.6 µM (inactive)
same,GI50,SF-268,17.9 µM (inactive)
same,GI50,HOP-92,> 47.3 µM (inactive)
same,GI50,LOX IMVI,15.6 µM (inactive)
same,GI50,SF-539,16.4 µM (inactive)
same,GI50,A498,22.9 µM (inactive)
same,GI50,COLO 205,16.4 µM (inactive)
same,GI50,KM-20L2,0.382 µM (active)
same,GI50,NCI-H23,18 µM (inactive)
same,GI50,M14,15.7 µM (inactive)
same,GI50,HCC 2998,> 10 µM (inactive)
same,GI50,OVCAR-5,6.01 µM (inactive)
same,GI50,K562,17.5 µM (inactive)
same,GI50,SK-MEL-28,19.2 µM (inactive)
same,GI50,HCT-15,17 µM
same,GI50,KM12,> 44.9 µM (inactive)
same,GI50,DLD-1,> 10 µM (inactive)
same,GI50,SNB-75,> 10 µM (inactive)
same,GI50,SK-MEL-2,17.3 µM (inactive)
same,GI50,NCI-H460,21 µM (inactive)
same,GI50,SNB-78,18.6 µM (inactive)
same,GI50,HT-29,17.8 µM (inactive)
same,GI50,SW-620,17.6 µM (inactive)
O=C1/C(=C/c2ccccc2Cl)COc2ccc(Br)cc21,GI50,UO-31,55.7 µM (inactive)
same,GI50,A549,97.3 µM (inactive)
same,GI50,HOP-62,92.7 µM (inactive)
same,GI50,OVCAR-3,37.3 µM (inactive)
same,GI50,UACC-257,> 100 µM (inactive)
same,GI50,TK-10,> 100 µM (inactive)
same,GI50,CCRF-CEM,4.49 µM (inactive)
same,GI50,OVCAR-8,56.9 µM (inactive)
same,GI50,DMS-114,38.3 µM (inactive)
same,GI50,HL-60,18.5 µM (inactive)
same,GI50,DMS-273,32.3 µM (inactive)
same,GI50,ACHN,> 100 µM (inactive)
same,GI50,U-251,40.6 µM (inactive)
same,GI50,IGROV-1,> 100 µM (inactive)
same,GI50,NCI-H522,20.6 µM (inactive)
same,GI50,HOP-18,54.1 µM (inactive)
same,GI50,Malme-3M,> 100 µM (inactive)
same,GI50,LXFL 529,63 µM (inactive)
same,GI50,RPMI-8226,2.1 µM (inactive)
same,GI50,EKVX,> 100 µM (inactive)
same,GI50,HCT-116,25.1 µM (inactive)
same,GI50,M19-MEL,> 100 µM (inactive)
same,GI50,MOLT-4,18 µM (inactive)
same,GI50,RXF 393,39 µM (inactive)
same,GI50,XF498,27.2 µM (inactive)
same,GI50,786-0,37.4 µM (inactive)
same,GI50,SK-OV-3,27 µM (inactive)
same,GI50,SF-295,37.6 µM (inactive)
same,GI50,SF-268,> 100 µM (inactive)
same,GI50,HOP-92,46.3 µM (inactive)
same,GI50,LOX IMVI,> 100 µM (inactive)
same,GI50,SF-539,52.8 µM (inactive)
same,GI50,A498,> 100 µM (inactive)
same,GI50,COLO 205,73.8 µM (inactive)
same,GI50,KM-20L2,> 100 µM (inactive)
same,GI50,NCI-H23,> 100 µM (inactive)
same,GI50,HCC 2998,> 100 µM (inactive)
same,GI50,OVCAR-5,> 100 µM (inactive)
same,GI50,K562,3.82 µM (inactive)
same,GI50,SK-MEL-28,> 100 µM (inactive)
same,GI50,KM12,22.4 µM (inactive)
same,GI50,DLD-1,65.9 µM (inactive)
same,GI50,SNB-75,30.4 µM (inactive)
same,GI50,SK-MEL-2,82.8 µM (inactive)
same,GI50,NCI-H460,> 100 µM (inactive)
same,GI50,SNB-78,43.1 µM (inactive)
same,GI50,HT-29,> 100 µM (inactive)
same,GI50,SW-620,23.8 µM (inactive)
